Source: article PMC7305236, “The atypical chemokine receptor ACKR3/CXCR7 is a broad-spectrum scavenger for opioid peptides” (Nature Communications, 2020)
Read-outs that look alike come from different tables or passages of the source.

Tests used:
CCR4 = target: T1, CCR4 (Homo sapiens, UniProt P51679); assay: Figure S2a opioid peptide screen on chemokine receptors; format: cell-based; design: dose or concentration left out as unconfirmed
T1 construct: expressed in transfected cells
T1 sequence (P51679 1-360): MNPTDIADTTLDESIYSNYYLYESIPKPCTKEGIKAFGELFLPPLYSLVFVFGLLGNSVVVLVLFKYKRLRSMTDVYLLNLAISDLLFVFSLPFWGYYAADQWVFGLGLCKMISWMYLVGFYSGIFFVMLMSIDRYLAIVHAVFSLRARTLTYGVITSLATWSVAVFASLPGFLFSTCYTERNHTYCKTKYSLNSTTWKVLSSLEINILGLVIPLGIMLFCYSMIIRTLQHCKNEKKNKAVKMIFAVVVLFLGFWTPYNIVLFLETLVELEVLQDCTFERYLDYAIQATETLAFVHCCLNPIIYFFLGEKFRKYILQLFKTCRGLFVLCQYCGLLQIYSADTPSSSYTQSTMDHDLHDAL

CCR10 = target: T2, CCR10 (Homo sapiens, UniProt P46092); assay: as above; format: cell-based; design: dose or concentration left out as unconfirmed
T2 construct: expressed in transfected cells
T2 sequence (P46092 1-362): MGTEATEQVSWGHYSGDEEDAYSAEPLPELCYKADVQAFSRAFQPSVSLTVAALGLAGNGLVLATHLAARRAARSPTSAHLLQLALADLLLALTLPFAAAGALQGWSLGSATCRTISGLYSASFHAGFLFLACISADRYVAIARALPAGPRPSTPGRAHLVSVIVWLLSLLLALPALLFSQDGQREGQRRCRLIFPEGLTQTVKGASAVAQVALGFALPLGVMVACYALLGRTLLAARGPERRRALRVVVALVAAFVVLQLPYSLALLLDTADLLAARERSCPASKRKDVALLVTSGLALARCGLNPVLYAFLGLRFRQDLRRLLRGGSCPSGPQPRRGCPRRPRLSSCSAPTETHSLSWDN

CXCR1 = target: T3, CXCR1 (Homo sapiens, UniProt P25024); assay: as above; format: cell-based; design: dose or concentration left out as unconfirmed
T3 construct: expressed in transfected cells
T3 sequence (P25024 1-350): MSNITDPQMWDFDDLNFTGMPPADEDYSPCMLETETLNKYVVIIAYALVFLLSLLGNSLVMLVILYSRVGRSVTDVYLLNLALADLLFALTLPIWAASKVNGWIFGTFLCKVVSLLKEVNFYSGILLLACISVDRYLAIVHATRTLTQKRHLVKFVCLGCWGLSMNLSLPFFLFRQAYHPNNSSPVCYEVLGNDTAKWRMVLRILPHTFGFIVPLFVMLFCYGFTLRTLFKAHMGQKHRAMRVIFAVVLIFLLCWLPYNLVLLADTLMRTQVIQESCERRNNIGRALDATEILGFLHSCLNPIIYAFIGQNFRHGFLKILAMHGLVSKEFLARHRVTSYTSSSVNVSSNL

ACKR2 = target: T4, ACKR2 (Homo sapiens, UniProt O00590); assay: as above; format: cell-based; design: dose or concentration left out as unconfirmed
T4 construct: expressed in transfected cells; host or cells: U87 cells (human glioblastoma)
T4 sequence (O00590 1-384): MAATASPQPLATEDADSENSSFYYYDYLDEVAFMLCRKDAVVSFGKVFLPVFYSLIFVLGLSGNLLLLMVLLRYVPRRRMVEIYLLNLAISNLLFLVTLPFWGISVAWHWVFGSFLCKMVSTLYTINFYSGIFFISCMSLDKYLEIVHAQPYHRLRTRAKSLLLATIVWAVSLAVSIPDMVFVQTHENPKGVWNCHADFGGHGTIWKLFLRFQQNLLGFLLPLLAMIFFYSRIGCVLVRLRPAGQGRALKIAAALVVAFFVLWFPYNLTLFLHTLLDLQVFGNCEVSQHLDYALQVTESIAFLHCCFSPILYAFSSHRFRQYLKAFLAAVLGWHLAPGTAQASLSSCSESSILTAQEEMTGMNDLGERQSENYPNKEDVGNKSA

ACKR = target: T5, ACKR (Homo sapiens, UniProt P25106); assay: Figure 6h, ACKR, DMSO vs Bafilomycin treatment; format: cell-based; conditions: n = 3 or 4 as in cell
T5 construct: expressed in transfected cells; host or cells: U87 cells (human glioblastoma)
T5 sequence (P25106 whole entry): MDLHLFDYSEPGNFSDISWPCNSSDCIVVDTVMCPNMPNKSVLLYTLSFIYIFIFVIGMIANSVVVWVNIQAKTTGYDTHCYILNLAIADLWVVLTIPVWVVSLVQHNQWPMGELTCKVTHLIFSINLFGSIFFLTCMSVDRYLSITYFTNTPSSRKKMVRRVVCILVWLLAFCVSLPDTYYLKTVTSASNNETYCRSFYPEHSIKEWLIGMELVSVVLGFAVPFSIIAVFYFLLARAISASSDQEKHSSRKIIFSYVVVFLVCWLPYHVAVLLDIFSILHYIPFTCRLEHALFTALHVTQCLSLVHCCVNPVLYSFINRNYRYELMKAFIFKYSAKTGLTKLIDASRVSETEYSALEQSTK

CCR3 = target: T6, CCR3 (Homo sapiens, UniProt P51677); assay: Figure S2a opioid peptide screen on chemokine receptors; design: dose or concentration left out as unconfirmed; conditions: read-out: CCR3 activity, ctrl+ = 100, Figure S2a
T6 sequence (P51677 1-355): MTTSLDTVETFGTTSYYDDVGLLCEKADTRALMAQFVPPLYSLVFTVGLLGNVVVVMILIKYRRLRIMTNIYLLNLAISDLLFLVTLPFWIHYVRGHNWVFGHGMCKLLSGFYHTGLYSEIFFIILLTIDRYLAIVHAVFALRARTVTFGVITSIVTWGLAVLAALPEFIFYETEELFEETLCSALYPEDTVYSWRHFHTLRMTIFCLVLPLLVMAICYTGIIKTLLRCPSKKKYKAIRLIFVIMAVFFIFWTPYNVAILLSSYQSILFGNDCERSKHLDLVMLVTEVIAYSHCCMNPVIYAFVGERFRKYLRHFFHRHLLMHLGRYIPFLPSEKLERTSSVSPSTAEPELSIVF

KOR = KOR (Homo sapiens, UniProt P41145); assay: Figure 6h, KOR, DMSO vs Bafilomycin treatment; format: cell-based; design: expressed in transfected cells; host or cells: U87 (human glioblastoma); conditions: n = 3 or 4 as in cell
Sequence of KOR (P41145 whole entry): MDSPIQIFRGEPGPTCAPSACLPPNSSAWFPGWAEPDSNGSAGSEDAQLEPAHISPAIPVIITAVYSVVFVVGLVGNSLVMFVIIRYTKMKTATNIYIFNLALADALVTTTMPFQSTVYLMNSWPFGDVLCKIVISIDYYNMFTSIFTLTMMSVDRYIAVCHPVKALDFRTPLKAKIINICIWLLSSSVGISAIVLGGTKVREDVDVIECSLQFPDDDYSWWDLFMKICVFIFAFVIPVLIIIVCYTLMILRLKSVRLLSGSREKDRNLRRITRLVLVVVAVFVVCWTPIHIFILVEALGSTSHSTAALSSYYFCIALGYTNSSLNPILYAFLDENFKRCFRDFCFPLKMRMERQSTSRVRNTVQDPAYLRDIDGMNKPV

[1] = replicate 1, read-out: CCR4 activity, ctrl+ = 100
[2] = replicate 2, read-out: CCR4 activity, ctrl+ = 100
[3] = replicate 1, read-out: CCR10 activity, ctrl+ = 100
[4] = replicate 2, read-out: CCR10 activity, ctrl+ = 100
[5] = replicate 1, read-out: CXCR1 activity, ctrl+ = 100
[6] = replicate 2, read-out: CXCR1 activity, ctrl+ = 100
[7] = replicate 1, read-out: ACKR2 activity, ctrl+ = 100
[8] = replicate 2, read-out: ACKR2 activity, ctrl+ = 100
[9] = 'DMSO vs Bafilomycin treatment'
[10] = first of two columns under 'DMSO vs Bafilomycin treatment' (presumably DMSO)

Structure (SMILES)	activation (CCR4; [1]) [%]	activation (CCR4; [2]) [%]	activation (CCR4; replicate 3, read-out: CCR4 activity, ctrl+ = 100) [%]	activation (CCR10; [3]) [%]	activation (CCR10; [4]) [%]	activation (CCR10; replicate 3, read-out: CCR10 activity, ctrl+ = 100) [%]	activation (CXCR1; [5]) [%]	activation (CXCR1; [6]) [%]	activation (CXCR1; replicate 3, read-out: CXCR1 activity, ctrl+ = 100) [%]	activation (ACKR2; [7]) [%]	activation (ACKR2; [8]) [%]	activation (ACKR2; replicate 3, read-out: ACKR2 activity, ctrl+ = 100) [%]	Mean ± SEM (Figure 6h, ACKR) (ACKR; [9])	Mean ± SEM (Figure 6h, ACKR) (ACKR; [10])	activation (CCR3; replicate 1) [%]	activation (CCR3; replicate 2) [%]	Mean ± SEM (Figure 6h, KOR) (KOR; [9])	Mean ± SEM (Figure 6h, KOR) (KOR; [10])
CC(C)C[C@H](NC(=O)[C@H](Cc1ccccc1)NC(=O)CNC(=O)CNC(=O)[C@@H](N)Cc1ccc(O)cc1)C(=O)N[C@@H](CCCN=C(N)N)C(=O)N[C@@H](CCCN=C(N)N)C(=O)N[C@@H](CCC(N)=O)C(=O)N[C@@H](Cc1ccccc1)C(=O)N[C@@H](CCCCN)C(=O)N[C@H](C(=O)N[C@H](C(=O)N[C@H](C(=O)O)[C@@H](C)O)C(C)C)C(C)C [Dynorphin B]	-1.26	-2.57	5.93	-1.41	-7.38	5.94	-0.474	-0.947	0.71	-36.9	-27.9	-3.73	90,67 ± 2,557, n=3	114,2 ± 9,487, n=3	22.6	-7.56	30,69 ± 2,71, n=3	28,51 ± 2,354, n=3
CC[C@H](C)[C@H](NC(=O)[C@H](CCCNC(=N)N)NC(=O)[C@H](CCCNC(=N)N)NC(=O)[C@H](CC(C)C)NC(=O)[C@H](Cc1ccccc1)NC(=O)CNC(=O)CNC(=O)[C@@H](N)Cc1ccc(O)cc1)C(=O)N[C@@H](CCCNC(=N)N)C(=O)N1CCC[C@H]1C(=O)N[C@@H](CCCCN)C(=O)N[C@@H](CC(C)C)C(=O)N[C@@H](CCCCN)C(=O)O [Dynorphin 1-13]	0.25	-3.89	–	-2.25	-4.52	–	0.218	-1.21	–	-0.369	-39.6	–	–	–	5.05	-11.6	–	–
